{
  "source": "patent US20080200538A1",
  "about": "“Inhibition of Monocyte Survival, Differentiation, or Proliferation” (The Ohio State University Research Foundation, priority 2005, published 2008)",
  "key": {"THP-1 cells": {"tested_on": "THP-1 cells", "assay": "Cell viability assay (CellTiter 96 / MTT, A490)", "type": "cell-based, human", "settings": "THP-1, 50 to 500 μM apigenin, 24 h; reduced to", "procedure": "(§1) FIG. 1. Effect of apigenin and naringenin in cell survival of cancer cells. (A) Structure of the flavonoids apigenin and naringenin. (B) THP-1, U937, A549, and MCF-7 cells were treated with various doses of apigenin or naringenin for 24 h. After the treatment, the percentage of cell proliferation was calculated as the ratio of treated cells to control cells as determined by the MTT method (A490). Data represents means ±SEM (N=9). […] Cells were plated at a density of 2×10^4 cells/well into 96-well plates and treated with flavonoids at indicated concentrations for 24 h. Absorbance at 490 nm (A490) was recorded using an ELISA plate reader (Bio-Tek ELx800, KC Junior, Winooski, Vt.)."}, "U937 cells [1]": {"tested_on": "U937 cells", "assay": "Cell viability assay (CellTiter 96 / MTT, A490)", "type": "cell-based, human", "settings": "24 h, reduced to", "procedure": "as §1"}, "A549 cells": {"tested_on": "A549 cells", "assay": "Cell viability assay (CellTiter 96 / MTT, A490)", "type": "cell-based", "settings": "A549, apigenin, 24 h; reduced to", "procedure": "as §1"}, "MCF-7 cells": {"tested_on": "MCF-7 cells", "assay": "Cell viability assay (CellTiter 96 / MTT, A490)", "type": "cell-based", "settings": "MCF-7, apigenin, 24 h; reduced to", "procedure": "as §1"}, "U937 cells [2]": {"tested_on": "U937 cells", "assay": "Cell survival and apoptosis by calcein AM/PI staining", "type": "cell-based, human", "settings": "U937, 50 μM", "procedure": "FIG. 2. Apigenin induces cell death in monocytic leukemia cells. THP-1 and U937 leukemia cells were treated for various lengths of time with 50 μM apigenin or left untreated (NT) and stained with calcein AM and PI as described in Material and Methods to evaluate the percentage of cell survival. (A) THP cells after 12 h cells treated with 50 μM apigenin or with DMSO (NT). (B) The percentage of cell survival represented by means ±SEM (N=3).\nTo investigate apoptosis, cells were plated at a density of 1×10^6 cells/well. After treatment, cells were collected and washed in PBS. Cells were then incubated in RPMI (no phenol red) and 1 μg/ml calcein AM for 30 min and 5×10−2 ng/ml propidium iodide (PI) for 5 min. Cells were washed twice and resuspended in PBS. Cells were viewed using a fluorescent microscope (Olympus, Melville, N.Y.). At least 200 cells were counted. Cells calcein AM positive (green) in the absence of PI (red) were considered alive while cells undergoing apoptosis are green with red. Number of green cells or green with red cells was counted over total number of cells (green alone and green with red) to express cell survival or apoptotic cell percentage respectively."}, "caspase-9 [3]": {"tested_on": "caspase-9", "assay": "Caspase-9 activity, LEHD-AFC assay, THP-1 lysates", "type": "cell-based, human", "settings": "THP-1, 50 μM apigenin", "procedure": "(§2) FIG. 3. Apigenin induces caspase activation in monocytic leukemia. THP-1 (top) and U937 (bottom) leukemia cells were treated for various lengths of time with 50 μM apigenin or DMSO (NT). (A and C) Caspase-9 activity was determined by the LEHDAFC assay. (B and D) Caspase-3 activity was determined by the DEVD-AFC assay. Data represents means ±SEM (N=3).\n(§3) For measurements of caspase activity, cells were plated at a density of 1.5×10^6 cells/well. After treatment, cells extracts were prepared as previously described (Doseff, A. I., Baker J. H., Bourgeois T. A. and Wewers M. D. (2003) Interleukin-4-induced zpoptosis entails caspase activation and suppression of extracellular signal-regulated kinase phosphorylation. Am. J. Resp. Cell Mol. Biol., 29, 367-374). Protein extracts were incubated with 20 μM DEVD-AFC to determine caspase-3 activity or LEHD-AFC to determine caspase-9 activity (Enzyme Systems Products, Livermore, Calif.) in a cytobuffer as previously described (Doseff, A. I., Baker J. H., Bourgeois T. A. and Wewers M. D. (2003) Interleukin-4-induced zpoptosis entails caspase activation and suppression of extracellular signal-regulated kinase phosphorylation. Am. J. Resp. Cell Mol. Biol., 29, 367-374). Levels of released AFC were measured using Cytofluor 400 fluorimeter (Filters: excitation 400 nm, emission 508 nm; Perspective Co., Framingham, Mass.)."}, "caspase-9 [4]": {"tested_on": "caspase-9", "assay": "Caspase-9 activity, LEHD-AFC assay, U937 lysates", "type": "cell-based, human", "settings": "U937, 50 μM apigenin; remained high even after 24 h", "procedure": "as §2, §3"}, "p38": {"tested_on": "p38", "assay": "Western blot of p38 phosphorylation in THP-1 cells", "type": "cell-based, human", "settings": "THP-1, 50 μM apigenin, after 3 h", "method": "A. THP-1 cells were treated with 50 μM apigenin for various lengths of time. Lysates were separated by SDS-PAGE, transferred and analyzed by immunoblots with anti-phospho-p38 (pp 38) and anti-total-p38 antibodies. B. THP-1 cells were treated for 6 hr with 50 μM apigenin alone (lane 2), treated with the apigenin diluent (lane 1), pretreatred with 10 or 25 μM SB203580 for 1 hr prior to the addition of apigenin (lanes 3 and 4) or with the SB203580 inhibitor alone (lanes 5 and 6).\nExtracts from 3×10^6 cells were prepared by incubating cells for 30 min on ice in lysis buffer (50 mM Tris, 10 mM EDTA 0.5% NP-40, 10 mM Na-glycerophosphate, 5 mM Na-pyrophosphate, 50 mM NaF, 1 mM orthovanadate, 1 mM DTT, 0.1 mM PMSF, 2 μg/ml of protease inhibitors: chymostatin, pepstatin, antipain, and leupeptin). Cell lysates were centrifuged (14,000×g for 10 min at 4° C.) and the supernatants were stored for at −70° C. for future analysis. Equal amounts of protein were loaded and separated by SDS-PAGE, transferred onto nitrocellulose membranes and probed with antibodies of interest followed by horseradish peroxidase conjugated secondary antibody and visualized by enhanced chemiluminescence (Amersham, Arlington Heights, Ill.). […]"}, "caspase-3": {"tested_on": "caspase-3", "assay": "Caspase-3 activity in LPS-stimulated monocytes (DEVD-AFC)", "type": "cell-based", "procedure": "as §3\nApigenin reactivates caspase-3 on LPS-stimulated monocytes. Caspase-3 activity was determined by the DEVD-AFC assay in monocytes freshly isolated (Fresh) or monocytes cultured for 18 h left untreated, treated with 10 ng/m 1 LPS or (A) with different doses of apigenin alone, (B) with LPS and different doses of apigenin or (C) with LPS 1 h prior to the addition of apigenin. […]"}, "TNFα [5]": {"tested_on": "TNFα", "assay": "TNFα release by LPS stimulated monocytes", "type": "cell-based"}, "IL-8 [6]": {"tested_on": "IL-8", "assay": "IL-8 release by LPS stimulated monocytes", "type": "cell-based"}, "IL-1β": {"tested_on": "IL-1β", "assay": "Cytokine expression in LPS-treated monocytes by quantitative PCR", "type": "cell-based", "settings": "10 ng/ml LPS and 10 μM apigenin", "procedure": "(§4) Expression of IL-1β, IL-8 and TNFα was analyzed by quantitative PCR using lysates from monocytes left untreated, treated with 10 ng/ml of LPS or with LPS and 10 μM of apigenin. Values represent means ±SEM (N=4)."}, "IL-8 [7]": {"tested_on": "IL-8", "assay": "Cytokine expression in LPS-treated monocytes by quantitative PCR", "type": "cell-based", "settings": "10 ng/ml LPS and 10 μM apigenin", "procedure": "as §4"}, "TNFα [8]": {"tested_on": "TNFα", "assay": "Cytokine expression in LPS-treated monocytes by quantitative PCR", "type": "cell-based", "settings": "10 ng/ml LPS and 10 μM apigenin", "procedure": "as §4"}},
  "data": [
    {"smiles": "O=c1cc(-c2ccc(O)cc2)oc2cc(O)cc(O)c12", "note": "[apigenin]", "values": [
      {"measurement": "cell proliferation (ratio of treated to control cells)", "setting": "THP-1 cells", "value": "approximately 20%"},
      {"measurement": "cell proliferation (ratio of treated to control cells)", "setting": "U937 cells [1]; U937, 50 μM apigenin", "value": 50, "unit": "%"},
      {"measurement": "cell proliferation (ratio of treated to control cells)", "setting": "U937 cells [1]; U937, higher concentrations of apigenin (above 50 μM)", "value": 20, "unit": "%"},
      {"measurement": "cell proliferation (ratio of treated to control cells)", "setting": "A549 cells", "value": 80, "unit": "%"},
      {"measurement": "cell proliferation (ratio of treated to control cells)", "setting": "MCF-7 cells", "value": 80, "unit": "%"},
      {"measurement": "decrease in cell survival", "setting": "U937 cells [2]; 12 h", "value": 10, "unit": "%"},
      {"measurement": "decrease in cell survival", "setting": "U937 cells [2]; 24 h", "value": 50, "unit": "%"},
      {"measurement": "caspase-9 activity, time course", "setting": "caspase-9 [3]", "value": "observed after 6 h of treatment with apigenin and remained high after 9 h of treatment, decreasing after 12 h"},
      {"measurement": "caspase-9 activity, time course", "setting": "caspase-9 [4]", "value": "detected at 9 h"},
      {"measurement": "phosphorylation of p38", "setting": "p38", "value": "increase"},
      {"measurement": "caspase-3 activation", "setting": "caspase-3", "value": "significantly increases"},
      {"measurement": "release of TNFα", "setting": "TNFα [5]", "value": "inhibits"},
      {"measurement": "release of IL-8", "setting": "IL-8 [6]", "value": "inhibits"},
      {"measurement": "expression of IL-1β", "setting": "IL-1β", "value": "inhibits the expression"},
      {"measurement": "expression of IL-8", "setting": "IL-8 [7]", "value": "inhibits the expression"},
      {"measurement": "expression of TNFα", "setting": "TNFα [8]", "value": "inhibits the expression"}
    ]}
  ]
}
